In one assay the test system is coronary blood flow. The assay can be described thus: Effect on coronary blood flow. The note with it: for ED50: dose required to increase the coronary blood flow by a half of the effects of nifedipine, injected into the coronary artery, anesthetized dogs; for T 1/2: half-life measured as the duration of effects on coronary blood flow. It is filed as in vivo, Adult mongrel dogs. The method, then: Pharmacological experiment 2: Effect on coronary blood flow Adult mongrel dogs were anesthetized with sodium pentobarbital (30 mg/kg, i.v.). According to the method of Yago et al described in Folia Pharmacol. Japon, vol. 57, 380 (1961), the left coronary artery was perfused and its blood flow was measured. […] The half-life (T 1/2, minute) was measured as the duration of effects.

The next assay has as its system liver mitochondria. The assay can be described thus: Effect on lipid peroxidation (malondialdehyde formation in liver mitochondria, thiobarbituric acid method). The settings on record: 50% inhibitory concentration on the formation of malondialdehyde; ascorbic acid, ferrous sulfate; 25°C for 30 minutes. It is filed as biochemical, Male Sprague-Dawley rats. The method, then: Pharmacological experiment 4: Effect on lipid peroxidation
Male Sprague-Dawley rats weighing 300-350 g were used. According to the method of Shimada et al described in Biochim. Biophys. Acta, vol. 572, 531 (1979), the liver mitochondria were isolated and ascorbic acid, ferrous sulfate, potassium chloride and Tris-HC1 buffer were added. To the solution was added test compound dissolved in dimethyl sulfoxide, and the mixture was incubated at 25°C for 30 minutes. The amount of malondialdehyde was determined by the thiobarbituric acid method and the 50% inhibitory concentration (IC50, µmol) of test compound on the formation of malondialdehyde was measured.

For another assay, the system named is vertebral blood flow. The assay can be described thus: Effect on vertebral blood flow. Type of assay: in vivo, Adult mongrel dogs. The note with it: for ED100: dose required to obtain 100% of the increase of blood flow by 100 µg of papaverine hydrochloride, injected in the vertebral artery, anesthetized dogs; for T 1/2: half-life measured as the duration of effects on vertebral blood flow. The method, then: Pharmacological experiment 3: Effect on vertebral blood flow Adult mongrel dogs were anesthetized with sodium pentobarbital (25 mg/kg, i.v.). The right vertebral artery was perfused and the blood flow was measured. Test compound was injected in the vertebral artery. […] Half-life (T 1/2, minute) was measured as the duration of effects.

In the case of `CCOC(=O)C1=C(C)Nc2ncc(N(CC)CC)n2C1c1cccc([N+](=O)[O-])c1` (stereo not shown) [Compound F, Ethyl 3-diethylamino-7-methyl-5-(3-nitrophenyl)-5,8-dihydroimidazo[1,2-a]pyrimidine-6-carboxylate], in the assay on coronary blood flow, the “ED50” value came out at 12 µg and the “T 1/2” value amounted to 1.0 min. In the assay with liver mitochondria, the 50% inhibitory concentration (IC50) (as a rule, the concentration needed to halve the response being measured) is 2000 nM.
On to `CCCCNCc1cnc2n1C(c1cccc([N+](=O)[O-])c1)C(C(=O)OCC)=C(C)N2.Cl.Cl` (stereo not shown) [Compound O, Ethyl 3-butylaminomethyl-7-methyl-5-(3-nitrophenyl)-5,8-dihydroimidazo[1,2-a]pyrimidine-6-carboxylate dihydrochloride], for which, in the assay with vertebral blood flow, the “ED100” value stood at 15 µg and the “T 1/2” value came to 0.7 min.
With `CCOC(=O)C1=C(C)Nc2ncc(CNCc3ccccc3)n2C1c1cccc([N+](=O)[O-])c1.Cl.Cl` (stereo not shown) [Compound N, Ethyl 3-benzylaminomethyl-7-methyl-5-(3-nitrophenyl)-5,8-dihydroimidazo[1,2-a]pyrimidine-6-carboxylate dihydrochloride], in the assay on vertebral blood flow, the “ED100” value is 10 µg and the “T 1/2” value stood at 0.7 min.
With `COC(=O)C1=C(C)Nc2ncc(CN(C(C)C)C(C)C)n2C1c1cccc([N+](=O)[O-])c1` (stereo not shown) [Compound K, Methyl 3-diisopropylaminomethyl-7-methyl-5-(3-nitrophenyl)-5,8-dihydroimidazo[1,2-a]pyrimidine-6-carboxylate], in the assay on coronary blood flow, the “ED50” value amounted to 6 µg and the “T 1/2” value is 1.5 min.
With `CCOC(=O)C1=C(C)Nc2ncc(N3CCCC3)n2C1c1cccc([N+](=O)[O-])c1` (stereo not drawn) [Compound D, Ethyl 7-methyl-5-(3-nitrophenyl)-3-(l-pyrrolidinyl)-5,8-dihydroimidazo[1,2-a]pyrimidine-6-carboxylate], in the assay with coronary blood flow, the “ED50” value was 8 µg and the “T 1/2” value is 1.3 min. This compound showed an IC50 in the assay on liver mitochondria of 200 nM.
Take `COC(=O)C1=C(C)Nc2ncc(COC(C)C)n2C1c1cccc([N+](=O)[O-])c1` (stereo not shown) [Compound L, Methyl 3-isopropoxymethyl-7-methyl-5-(3-nitrophenyl)-5,8-dihydroimidazo[1,2-a]pyrimidine-6-carboxylate]: in the assay on coronary blood flow, the “ED50” value came to 5 µg and the “T 1/2” value was found to be 1.0 min.
Turning to `CCOC(=O)C1=C(C)Nc2ncc(N(C)Cc3ccccc3)n2C1c1cccc([N+](=O)[O-])c1` (stereo not shown) [Compound R, Ethyl 7-methyl-5-(3-nitrophenyl)-3-(N-benzyl-N-methyl)amino-5,8-dihydroimidazo[1,2-a]pyrimidine-6-carboxylate], the IC50 in the assay with liver mitochondria was found to be 700 nM.
Take `CCCN(CCC)Cc1cnc2n1C(c1cccc([N+](=O)[O-])c1)C(C(=O)OC)=C(C)N2` (stereo not shown) [Compound H, Methyl 3-dipropylaminomethyl-7-methyl-5-(3-nitrophenyl)-5,8-dihydroimidazo[1,2-a]pyrimidine-6-carboxylate]: in the assay on vertebral blood flow, the “ED100” value was found to be 2 µg and the “T 1/2” value is 1.0 min. In the assay on coronary blood flow, the “ED50” value turned out to be 7 µg and the “T 1/2” value was found to be 1.0 min.
As to `CCOC(=O)C1=C(C)Nc2ncc(CN(CC)CC)n2C1c1ccccc1[N+](=O)[O-].Cl.Cl.O` (stereo not shown) [Compound I, Ethyl 3-diethylaminomethyl-7-methyl-5-(2-nitrophenyl)-5,8-dihydroimidazo[1,2-a]pyrimidine-6-carboxylate dihydrochloride monohydrate], in the assay with coronary blood flow, the “ED50” value was found to be 10 µg and the “T 1/2” value stood at 2.0 min.
For the compound `CCN(CC)Cc1cnc2n1C(c1cccc([N+](=O)[O-])c1)C(C(=O)OCCOC)=C(C)N2` (stereo not shown) [Compound J, 2-Methoxyethyl 3-diethylaminomethyl-7-methyl-5-(3-nitrophenyl)-5,8-dihydroimidazo[1,2-a]pyrimidine-6-carboxylate], in the assay with coronary blood flow, the “ED50” value is 5 µg and the “T 1/2” value was 1.7 min.
On the same counts, the results for `CCOC(=O)C1=C(C)Nc2ncc([N+](=O)[O-])n2C1c1ccccc1C(F)(F)F` (stereo not shown) [Compound M, Ethyl 7-methyl-3-nitro-5-(2-trifluoromethylphenyl)-5,8-dihydroimidazo[1,2-a]pyrimidine-6-carboxylate] are 5 µg and 1.0 min.

Source of the values: patent EP0163240A2, “Dihydroimidazo[1,2-a]pyrimidine derivatives, methods of preparing said compounds and pharmaceutical compositions constaining said compounds” (priority 1984, dated 1985).
